{"source": "patent US9278982B2", "about": "“Targeting human thymidylate kinase induces DNA repair toxicity in malignant tumor cells” (NATIONAL YANG-MING UNIVERSITY, priority 2010, dated 2016)", "key": {"HCT-116 p53−/− cells": {"tested_on": "HCT-116 p53−/− cells", "assay": "In vivo xenograft model, sensitization to low-dose doxorubicin", "parameters": "species or system Balb/c nude mice", "experimental": "FIG. 16. In vitro and in vivo effect of YMU1 on doxorubicin sensitization. (A) A panel of cell lines were pre-treated with vehicle, YMU1 (compound 21), D6 (ethyl 4-(2-chloroacetyl)piperazine-1-carboxylate) or D7 (compound 28) for 3 days and were exposed to different concentration of doxorubicin for 4 h. […] The enhancement (fold) of doxorubicin sensitivity in each cell line was calculated. Data represent mean±s.d., n=3; each experiment was quadruplex. Inset indicates the IC50 value of doxorubicin in various cell lines. […] Following overnight culture, cells were refreshed with growth medium. After 14 days of culture, colonies were fixed, stained by crystal violet and counted. (C) HCT-116 p53^−/− cells were subcutaneously implanted in the right flank of Balb/c nude mice (each experimental group n=8). Arrow indicated the time of stopping drug treatment. The tumor volume was estimated as described in Methods of the Invention section. (D) After 2 weeks recovered from treatment, mice were sacrificed for tumor weight measurement. Data represent mean±s.e.m; **, P<0.01 by a two-tailed Student's t-test. (E) Ki 67 proliferation marker staining of tumor shown in left panel. Scale bar, 50 μm. (F) Model of doxorubicin sensitization by YMU1 in malignant cancer cells. […]\nWe also used an in vivo xenograft model to examine the effect of YMU1 as an adjuvant on sensitization to low-dose doxorubicin treatment. […] Two weeks after the last injections were administered, mice were sacrificed and tumor weights measured. […]\nFemale BALB/c AnN.Cg-Foxnl^nu/Crl Nurl mice 6-8 weeks of age (National Laboratory Animal Center, Taiwan) were used for the tumor xenograft model. […] The tumor size was measured every day after initiated drug treatment with an electronic caliper. […]\nMonoclonal Ki 67 antibody (B56) was purchased from BD PharMingen. Paraffin-embedded tumor sections (5 μm) were incubated with the primary antibody, detected with a LSAB™ kit (DakoCytomation) according to the manufacturer's instructions and counterstained with hematoxylin."}, "panel of cell lines": {"tested_on": "panel of cell lines", "assay": "Doxorubicin sensitization, MTS viability assay, summary over the panel of cell lines", "format": "cell-based, human", "experimental": "FIG. 16. In vitro and in vivo effect of YMU1 on doxorubicin sensitization. (A) A panel of cell lines were pre-treated with vehicle, YMU1 (compound 21), D6 (ethyl 4-(2-chloroacetyl)piperazine-1-carboxylate) or D7 (compound 28) for 3 days and were exposed to different concentration of doxorubicin for 4 h. […] The enhancement (fold) of doxorubicin sensitivity in each cell line was calculated. Data represent mean±s.d., n=3; each experiment was quadruplex. Inset indicates the IC50 value of doxorubicin in various cell lines. […] Following overnight culture, cells were refreshed with growth medium. After 14 days of culture, colonies were fixed, stained by crystal violet and counted. (C) HCT-116 p53^−/− cells were subcutaneously implanted in the right flank of Balb/c nude mice (each experimental group n=8). Arrow indicated the time of stopping drug treatment. The tumor volume was estimated as described in Methods of the Invention section. (D) After 2 weeks recovered from treatment, mice were sacrificed for tumor weight measurement. Data represent mean±s.e.m; **, P<0.01 by a two-tailed Student's t-test. (E) Ki 67 proliferation marker staining of tumor shown in left panel. Scale bar, 50 μm. (F) Model of doxorubicin sensitization by YMU1 in malignant cancer cells. Both R2/R1 and TMPK are recruited to the site of doxorubicin-induced double-strand breaks, where dATP, dGTP, dCTP, dTTP and dUTP are site-specific synthesized. Inhibition of TMPK decreases dTTP formation at DNA damage sites, causing futile DNA repair due to dUTP incorporation.\nNext, various human cancer cell lines were treated with YMU1, D6 or D7 for 72 h to test the potential of TMPK inhibitor in doxorubicin sensitization. After exposure to different concentration of doxorubicin for 4 h, cells were refreshed for viability analysis after 2 days and the IC50 value for doxorubicin in each of the cell lines was determined (FIG. 16A and Table 2).\nThe ability of YMU1 to sensitize non-tumorigenic mammary cycling H184B5F5/M10, MCF10A, primary human mammary epithelial (HMEC) and primary renal epithelial (HREC) cells and IMR-90 embryonic lung fibroblasts to doxorubicin was much weaker.\nCells plated into a 96-well plate (10^3 cells/well) were treated and cell viability was measured by MTS assay (Promega) (Cory et al., 1991). An annexin V-fluorescein isothiocyanate (FITC) apoptosis kit (Calbiochem) was used to detect apoptosis. The cell cycle analysis was performed by staining cells with propidium iodide (PI) for fluorescence-activated cell sorter (FACS) analysis with CellQuest software."}, "In vivo toxicity of YMU1": {"assay": "In vivo toxicity of YMU1", "parameters": "species or system Balb/c mice"}}, "data": [{"smiles": "CCOC(=O)N1CCN(C(=O)Cn2sc3nc(C)cc(C)c3c2=O)CC1", "note": "[compound 21, Ethyl 4-(2-(4,6-dimethyl-3-oxoisothiazolo[5,4-b]pyridin-2(3H)-yl)acetyl) piperazine-1-carboxylate]", "values": [{"measurement": "growth of tumors, YMU1 combined with doxorubicin", "setting": "HCT-116 p53−/− cells; YMU1 15 mg/kg thrice a week + doxorubicin 1.25 mg/kg twice a week, i.p., 4 weeks", "value": "much slower"}, {"measurement": "tumor proliferation index (Ki 67 immunostaining), YMU1 combined with doxorubicin", "setting": "HCT-116 p53−/− cells; combinatory treatment of YMU1 and doxorubicin", "value": "clearly reduced"}, {"measurement": "average tumor size relative to control mice, YMU1 combined with doxorubicin", "setting": "HCT-116 p53−/− cells; two weeks after the last injections, YMU1 15 mg/kg thrice a week + doxorubicin 1.25 mg/kg twice a week, i.p.", "value": 25, "unit": "%"}, {"measurement": "ability to sensitize to doxorubicin", "setting": "panel of cell lines; non-tumorigenic H184B5F5/M10, MCF10A, HMEC, HREC cells and IMR-90 fibroblasts", "value": "much weaker"}, {"measurement": "doxorubicin sensitization", "setting": "panel of cell lines; two BRCA 1/2 deficient tumor cells defective in homologous recombination repair", "value": "not responsive"}, {"measurement": "Body weight", "setting": "In vivo toxicity of YMU1; Pre-treat, n = 4, Mean ± SEM", "value": "19.93 ± 1.63", "unit": "g"}, {"measurement": "Clinical observations", "setting": "In vivo toxicity of YMU1; Treatment group n = 4, YMU1 4 weeks", "value": "Nil"}, {"measurement": "Body weight", "setting": "In vivo toxicity of YMU1; Week -2, n = 4, Mean ± SEM", "value": "20.88 ± 1.07", "unit": "g"}, {"measurement": "Body weight", "setting": "In vivo toxicity of YMU1; Week-1, n = 4, Mean ± SEM", "value": "20.48 ± 1.43", "unit": "g"}, {"measurement": "Body weight", "setting": "In vivo toxicity of YMU1; Week-3, n = 4, Mean ± SEM", "value": "21.25 ± 1.13", "unit": "g"}, {"measurement": "Body weight", "setting": "In vivo toxicity of YMU1; Week-4, n = 4, Mean ± SEM", "value": "21.30 ± 0.96", "unit": "g"}, {"measurement": "mouse body weight", "setting": "In vivo toxicity of YMU1; YMU1 4 weeks, 2-fold higher dose regimen than in the tumor xenograft study", "value": "did not alter mouse body weight"}, {"measurement": "toxic effect in normal mice", "setting": "In vivo toxicity of YMU1; YMU1 on its own, 4 weeks", "value": "produces no toxic effect"}, {"measurement": "Blood Chemistry, Alanine Aminotransferase", "setting": "In vivo toxicity of YMU1; n = 4, Mean ± SEM", "value": "32.00 ± 2.45", "unit": "U/L"}, {"measurement": "Blood Chemistry, Alkaline Phosphatase", "setting": "In vivo toxicity of YMU1; n = 4, Mean ± SEM", "value": "389.25 ± 20.79", "unit": "U/L"}, {"measurement": "Blood Chemistry, Aspartate Aminotransferase", "setting": "In vivo toxicity of YMU1; n = 4, Mean ± SEM", "value": "62.50 ± 5.26", "unit": "U/L"}, {"measurement": "Blood Chemistry, Blood Urea Nitrogen", "setting": "In vivo toxicity of YMU1; n = 4, Mean ± SEM", "value": "19.08 ± 3.25", "unit": "mg/dL"}, {"measurement": "Blood Chemistry, Creatinine", "setting": "In vivo toxicity of YMU1; n = 4, Mean ± SEM", "value": "0.10 ± 0.00", "unit": "mg/dL"}, {"measurement": "Blood Chemistry, Total protein", "setting": "In vivo toxicity of YMU1; n = 4, Mean ± SEM", "value": "5.48 ± 0.25", "unit": "g/dL"}, {"measurement": "Hematology, Hb", "setting": "In vivo toxicity of YMU1; n = 4, Mean ± SEM", "value": "16.25 ± 0.41", "unit": "g/dl"}, {"measurement": "Hematology, PCV", "setting": "In vivo toxicity of YMU1; n = 4, Mean ± SEM", "value": "53.48 ± 2.50", "unit": "%"}, {"measurement": "Blood Chemistry, Glucose", "setting": "In vivo toxicity of YMU1; n = 4, Mean ± SEM, *P < 0.05", "value": "136.25 ± 14.31* mg/dl"}]}]}
